This passage reports IC50 results from US20100125081A1, “NEW COMPOUNDS 574” (ASTRAZENECA AB, priority 2008, published 2010).

Molecules are shown by their SMILES. Structures can show the parent of a compound that is named as a salt.

As usually defined, the IC50 is the concentration at which inhibition is half-maximal. A higher IC50 goes with a need for much substance.

For the experiment, the target named is T1, human β-Secretase (Homo sapiens, UniProt P56817).
T1 construct: soluble part of the human β-Secretase (AA 1-AA 460); Fc domain of IgG1 (C); made in house
T1 sequence (P56817 22-460): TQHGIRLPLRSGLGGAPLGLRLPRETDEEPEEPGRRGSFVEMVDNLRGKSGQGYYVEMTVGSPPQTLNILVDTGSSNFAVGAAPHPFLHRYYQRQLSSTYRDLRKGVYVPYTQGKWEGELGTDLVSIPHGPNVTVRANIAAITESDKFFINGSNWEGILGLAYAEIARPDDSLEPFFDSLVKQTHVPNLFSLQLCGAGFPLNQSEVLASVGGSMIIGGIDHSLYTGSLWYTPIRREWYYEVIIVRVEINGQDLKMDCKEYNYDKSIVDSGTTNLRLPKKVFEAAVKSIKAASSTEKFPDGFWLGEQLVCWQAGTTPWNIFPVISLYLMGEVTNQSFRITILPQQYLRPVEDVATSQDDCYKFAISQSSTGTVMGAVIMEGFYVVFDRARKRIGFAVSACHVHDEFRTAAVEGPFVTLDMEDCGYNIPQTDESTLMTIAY
As to the kind of experiment: TR-FRET assay (β-secretase enzyme, sBACE-Fc). The format is biochemical. The conditions noted are these: soluble human β-secretase (AA 1-460) Fc fusion, substrate (Europium)CEVNLDAEFK(Qsy7) 100 nM, pH 4.5; unit inferred, nM taken. The procedure:
The β-secretase enzyme used in the TR-FRET is prepared as follows:
The cDNA for the soluble part of the human β-Secretase (AA 1-AA 460) was cloned using the ASP2-Fc10-1-IRES-GFP-neoK mammalian expression vector. The gene was fused to the Fc domain of IgG1 (affinity tag) and stably cloned into HEK 293 cells.
The enzyme (truncated form) was diluted to 6 μg/mL (stock 1.3 mg/mL) and the substrate (Europium)CEVNLDAEFK(Qsy7) to 200 nM (stock 120 μM) in reaction buffer (NaAcetate, chaps, triton x-100, EDTA pH4.5). The robotic systems Biomek FX and Velocity 11 were used for all liquid handling and the enzyme and substrate solutions were kept on ice until they were placed in the robotic system. Enzyme (9 μl) was added to the plate then 1 μl of compound in dimethylsulphoxide was added, mixed and pre-incubated for 10 minutes. Substrate (10 μl) was then added, mixed and the reaction proceeded for 15 minutes at room temperature. The reaction was stopped with the addition of Stop solution (7 μl, NaAcetate, pH 9). The fluorescence of the product was measured on a Victor II plate reader with an excitation wavelength of 340 nm and an emission wavelength of 615 nm. The assay was performed in a Costar 384 well round bottom, low volume, non-binding surface plate (Corning #3676). The final concentration of the enzyme was 2.7 μg/ml; the final concentration of substrate was 100 nM (Km of ˜250 nM). The dimethylsulphoxide control, instead of test compound, defined the 100% activity level and 0% activity was defined by wells lacking enzyme (replaced with reaction buffer).
(In general: In TR-FRET formats the signal depends on donor and acceptor labels being close together.)
Consider `Cc1cc(C2(c3cccc(-c4cncnc4)c3)N=C(N)c3ncccc32)cc(C)c1OC(F)F` (stereo not drawn) [Example 12, 5-(4-(Difluoromethoxy)-3,5-dimethylphenyl)-5-(3-(pyrimidin-5-yl)phenyl)-5H-pyrrolo[3,4-b]pyridin-7-amine], for which half-maximal inhibition (IC50) required 47 nM.

In turn, `COc1c(C)cc(C2(c3cccc(-c4cncnc4)c3)N=C(N)c3ncccc32)nc1C` (stereo not drawn) [Example 35, 5-(5-Methoxy-4,6-dimethyl-pyridin-2-yl)-5-(3-pyrimidin-5-yl-phenyl)-5H-pyrrolo[3,4-b]pyridin-7-ylamine] showed an IC50 of 125 nM. This IC50 is about 2.7-fold higher than that of the compound before.

With `NC1=NC(c2cccc(-c3cncnc3)c2)(c2ccnc(C(F)(F)F)c2)c2cccnc21` (single isomer, unassigned) [25, Isomer 2], the IC50 came out at 176 nM.

On to `COc1c(C)cc(C2(c3cccc(-c4cnccn4)c3)N=C(N)c3ncccc32)cc1F` (stereo not drawn) [Example 15, 5-(3-Fluoro-4-methoxy-5-methylphenyl)-5-(3-(pyrazin-2-yl)phenyl)-5H-pyrrolo[3,4-b]pyridin-7-amine trifluoroacetic acid salt], for which the IC50 came out at 96 nM.

`COc1c(C)cc(C2(c3cccc(-c4cncnc4)c3)N=C(N)c3ncccc32)cc1F` (stereo not drawn) [Example 36, 5-(3-Fluoro-4-methoxy-5-methylphenyl)-5-(3-(pyrimidin-5-yl)phenyl)-5H-pyrrolo[3,4-b]pyridin-7-amine]: it took 41 nM to reach half-maximal inhibition (IC50). This IC50 is about 2.3-fold lower than that of the compound before.

`NC1=NC(c2cccc(-c3cncnc3)c2)(c2ccnc(OC=C(F)F)c2)c2cccnc21` (stereo not drawn) [Example 17, 5-(2-(2,2-Difluorovinyloxy)pyridin-4-yl)-5-(3-(pyrimidin-5-yl)phenyl)-5H-pyrrolo[3,4-b]pyridin-7-amine 0.2 acetic acid] yielded an IC50 of 1140 nM.

The compound `COc1ccc(C2(c3cccc(-c4cncnc4)c3)N=C(N)c3ncccc32)cc1C1CC1` (stereo not drawn) [Example 33, 5-(3-Cyclopropyl-4-methoxy-phenyl)-5-(3-pyrimidin-5-yl-phenyl)-5H-pyrrolo[3,4-b]pyridin-7-ylamine] displayed an IC50 of 222 nM. Compared with the last compound, the IC50 is about 5.1-fold lower.

Consider `Cc1cc(C2(c3cccc(-c4cnccn4)c3)N=C(N)c3ncccc32)cc(C)c1OC(F)F` (stereo not drawn) [Example 13, 5-(4-(Difluoromethoxy)-3,5-dimethylphenyl)-5-(3-(pyrazin-2-yl)phenyl)-5H-pyrrolo[3,4-b]pyridin-7-amine], for which half-maximal inhibition (IC50) required 38 nM.

On to `NC1=NC(c2ccnc(C(F)(F)F)c2)(c2ccc(O)c(-c3ccccc3F)c2)c2cccnc21` (stereo not drawn) [Example 38, 5-(7-Amino-5-(2-(trifluoromethyl)pyridin-4-yl)-5H-pyrrolo[3,4-b]pyridin-5-yl)-2′-fluorobiphenyl-2-ol], for which the IC50 turned out to be 658 nM. Against the preceding compound, the IC50 is about 17-fold higher.

For `Cc1cc(C2(c3cccc(-c4cnccn4)c3)N=C(N)c3ncccc32)cc(C)c1OCF` (stereo not drawn) [Example 27, 5-(4-(Fluoromethoxy)-3,5-dimethylphenyl)-5-(3-(pyrazin-2-yl)phenyl)-5H-pyrrolo[3,4-b]pyridin-7-amine], 90 nM corresponded to half-maximal inhibition (IC50).

Compound `Cc1cc(C2(c3cccc(-c4cncnc4)c3)N=C(N)c3ncccc32)cc(C)c1OCF` (stereo not drawn) [Example 26, 5-(4-(Fluoromethoxy)-3,5-dimethylphenyl)-5-(3-(pyrimidin-5-yl)phenyl)-5H-pyrrolo[3,4-b]pyridin-7-amine] gave an IC50 of 42 nM.

Compound `NC1=NC(c2cccc(-c3cncnc3)c2)(c2ccnc(C(F)(F)F)c2)c2cccnc21` (single isomer, unassigned) [25, Isomer 1] had an IC50 greater than 31600 nM.

With `Cc1cc(C2(c3cccc(-c4cncnc4)c3)N=C(N)c3ncccc32)cc(C(F)F)n1` (stereo not drawn) [Example 20, 5-(2-(Difluoromethyl)-6-methylpyridin-4-yl)-5-(3-(pyrimidin-5-yl)phenyl)-5H-pyrrolo[3,4-b]pyridin-7-amine], the midpoint of inhibition, the IC50, lay at 445 nM.

In turn, `NC1=NC(c2cccc(-c3cncnc3)c2)(c2ccc(OC(F)F)c(F)c2)c2cccnc21` (stereo not drawn) [Example 18, 5-(4-(Difluoromethoxy)-3-fluorophenyl)-5-(3-(pyrimidin-5-yl)phenyl)-5H-pyrrolo[3,4-b]pyridin-7-amine] displayed a half-inhibitory concentration (IC50) of 204 nM. This IC50 lies about 2.2-fold lower than the previous one.

Compound `Cc1cc(C2(c3cccc(-c4cncnc4)c3)N=C(N)c3ncccc32)cc(C)n1` (stereo not drawn) [Example 4, 5-(2,6-Dimethylpyridin-4-yl)-5-(3-(pyrimidin-5-yl)phenyl)-5H-pyrrolo[3,4-b]pyridin-7-amine] registered an IC50 of 1800 nM. This IC50 lies about 8.8-fold higher than the previous one.

`Cc1cc(C2(c3ccnc(-c4cncnc4)c3)N=C(N)c3ncccc32)cc(C2CC2)c1OC(F)F` (stereo not drawn) [Example 30, 5-(3-Cyclopropyl-4-difluoromethoxy-5-methyl-phenyl)-5-(2-pyrimidin-5-yl-pyridin-4-yl)-5H-pyrrolo[3,4-b]pyridin-7-ylamine] came in with an IC50 of 119 nM.

Take `NC1=NC(c2cccc(-c3cncnc3)c2)(c2ccc(OC(F)F)c(C3CC3)c2)c2cccnc21` (stereo not drawn) [Example 9, 5-(3-Cyclopropyl-4-(difluoromethoxy)phenyl)-5-(3-(pyrimidin-5-yl)phenyl)-5H-pyrrolo[3,4-b]pyridin-7-amine acetic acid]: the IC50 turned out to be 33 nM.

In the case of `Cc1cc(C2(c3cccc(-c4cncnc4)c3)N=C(N)c3ncc(Cl)cc32)ccn1` (stereo not drawn) [Example 10, 3-Chloro-5-(2-methylpyridin-4-yl)-5-(3-(pyrimidin-5-yl)phenyl)-5H-pyrrolo[3,4-b]pyridin-7-amine], the IC50 stood at 639 nM.

Take `NC1=NC(c2cccc(-c3cncnc3)c2)(c2ccnc(C(F)(F)F)c2)c2cccnc21` (stereo not drawn) [Example 2, 5-(3-(pyrimidin-5-yl)phenyl)-5-(2-(trifluoromethyl)pyridin-4-yl)-5H-pyrrolo[3,4-b]pyridin-7-amine]: the IC50 is 350 nM.

With `Cc1cc(C2(c3ccccc3)N=C(N)c3ncccc32)cc(C2CC2)c1OC(F)F` (stereo not drawn) [Example 31, 5-[3-Cyclopropyl-4-(difluoromethoxy)-5-methyl-phenyl]-5-phenyl-pyrrolo[3,4-b]pyridin-7-amine], inhibition was half-maximal at 815 nM (IC50).

`Cc1cc(C2(c3cccc(-c4cncnc4)c3)N=C(N)c3ncccc32)cc(C)c1F` (stereo not drawn) [Example 14, 5-(4-Fluoro-3,5-dimethylphenyl)-5-(3-(pyrimidin-5-yl)phenyl)-5H-pyrrolo[3,4-b]pyridin-7-amine] returned an IC50 of 593 nM. This IC50 and that of the compound before are within 1.5-fold of each other.

Consider `NC1=NC(c2cccc(-c3cncc(Cl)c3)c2)(c2ccnc(C(F)(F)F)c2)c2cccnc21` (stereo not drawn) [Example 21, 5-(3-(5-Chloropyridin-3-yl)phenyl)-5-(2-(trifluoromethyl)pyridin-4-yl)-5H-pyrrolo[3,4-b]pyridin-7-amine], for which the IC50 is 239 nM.

In turn, `COc1c(F)cc(C2(c3ccc(F)c(-c4cncnc4)c3)N=C(N)c3ncccc32)cc1F` (stereo not drawn) [Example 6, 5-(3,5-Difluoro-4-methoxyphenyl)-5-(4-fluoro-3-(pyrimidin-5-yl)phenyl)-5H-pyrrolo[3,4-b]pyridin-7-amine] gave an IC50 of 156 nM.

The compound `NC1=NC(c2cccc(-c3cncnc3)c2)(c2ccnc(OCCCF)c2)c2cccnc21` (stereo not drawn) [Example 28, 5-(2-(3-Fluoropropoxy)pyridin-4-yl)-5-(3-(pyrimidin-5-yl)phenyl)-5H-pyrrolo[3,4-b]pyridin-7-amine] returned an IC50 of 1560 nM.

`N#Cc1ccnc(-c2cccc(C3(c4ccnc(C(F)(F)F)c4)N=C(N)c4ncccc43)c2)c1` (stereo not drawn) [Example 22, 2-(3-(7-Amino-5-(2-(trifluoromethyl)pyridin-4-yl)-5H-pyrrolo[3,4-b]pyridin-5-yl)phenyl)isonicotinonitrile] yielded a concentration for half-maximal inhibition (IC50) of 1800 nM. This IC50 and that of the compound before are within 1.5-fold of each other.

With `COc1ccc(C2(c3cccc(-c4cncnc4)c3)N=C(N)c3ncccc32)cc1C(F)F` (stereo not drawn) [Example 24, 5-(3-(Difluoromethyl)-4-methoxyphenyl)-5-(3-(pyrimidin-5-yl)phenyl)-5H-pyrrolo[3,4-b]pyridin-7-amine], the IC50 came out at 212 nM. Compared with the last compound, the IC50 is about 8.5-fold lower.

Compound `Cc1cc(C2(c3cccc(-c4cncc(C#N)c4)c3)N=C(N)c3ncccc32)cc(C)n1` (stereo not drawn) [Example 5, 5-(3-(7-Amino-5-(2,6-dimethylpyridin-4-yl)-5H-pyrrolo[3,4-b]pyridin-5-yl)phenyl)nicotinonitrile] came in with an IC50 of 2400 nM.

The compound `COc1ccc(F)c(-c2cc(C3(c4ccnc(C(F)(F)F)c4)N=C(N)c4ncccc43)ccc2O)c1` (stereo not drawn) [Example 37, 5-(7-Amino-5-(2-(trifluoromethyl)pyridin-4-yl)-5H-pyrrolo[3,4-b]pyridin-5-yl)-2′-fluoro-5′-methoxybiphenyl-2-ol] had an IC50 of 206 nM.

For the compound `COc1ccc(C2(c3cccc(-c4cncnc4)c3)N=C(N)c3ncc(C)cc32)cc1` (stereo not drawn) [Example 11, 5-(4-Methoxyphenyl)-3-methyl-5-(3-(pyrimidin-5-yl)phenyl)-5H-pyrrolo[3,4-b]pyridin-7-amine], half-maximal inhibition (IC50) was put at 2120 nM.

Regarding `Cc1cc(C2(c3cccc(C#N)c3)N=C(N)c3ncccc32)cc(C2CC2)c1OC(F)F` (stereo not drawn) [Example 32, 3-[7-Amino-5-(3-cyclopropyl-4-difluoromethoxy-5-methyl-phenyl)-5H-pyrrolo[3,4-b]pyridin-5-yl]-benzonitrile], the IC50 is 61 nM.
